Results from BindingDB's records for patent US10556885 (Samumed, 2020).

How the values were obtained:
[1] = target: Dual specificity tyrosine-phosphorylation-regulated kinase 1A (Homo sapiens, UniProt Q13627); assay: Z-lyte Assay
Protocol: All reactions were performed in duplicate.

[2] = target: Glycogen synthase kinase-3 beta (Homo sapiens, UniProt P49841); assay: Z-lyte Assay
Chain of Glycogen synthase kinase-3 beta (P49841 whole entry): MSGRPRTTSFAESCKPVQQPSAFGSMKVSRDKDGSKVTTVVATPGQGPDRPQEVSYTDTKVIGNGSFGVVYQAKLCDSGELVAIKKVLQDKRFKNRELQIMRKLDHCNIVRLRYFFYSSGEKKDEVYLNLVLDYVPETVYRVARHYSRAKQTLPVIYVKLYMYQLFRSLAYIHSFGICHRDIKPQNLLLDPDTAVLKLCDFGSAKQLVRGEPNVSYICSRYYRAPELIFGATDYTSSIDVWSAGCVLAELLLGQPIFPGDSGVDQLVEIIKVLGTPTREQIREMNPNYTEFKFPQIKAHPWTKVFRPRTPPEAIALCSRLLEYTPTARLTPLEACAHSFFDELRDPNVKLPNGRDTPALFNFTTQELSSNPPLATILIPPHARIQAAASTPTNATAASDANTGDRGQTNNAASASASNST

EC50 [1]: 3.4 nM
EC50 [2]: 53 nM
Compound: Cc1ncc(-c2ccc3cnc(NC(=O)C4CCC(F)(F)CC4)cc3c2)[nH]1 [US10556885, Compound 121]
